Data published in ChEMBL document CHEMBL2086254, “Synthesis and identification of novel indolo[2,3-a]pyrimido[5,4-c]carbazoles as a new class of anti-cancer agents” (Eur J Med Chem, 2012).

Target: Cyclin-dependent kinase 2 (Homo sapiens, UniProt P24941)
Assay: Inhibition of CDK2

- IC50: < 60 nM
SMILES: Cn1c2ccccc2c2c3c(c4c5ccccc5n(CC(O)CO)c4c21)C(=O)NC3=O (stereo unspecified)
